The values that follow come from US10017535B2, “Amphiphilic compounds with neuroprotective properties” (USTAV ORGANICKE CHEMIE A BIOCHEMIE AV CR, v.v.i., priority 2014, dated 2018).

For the test, the target named is T1, NR1-1a/NR2B NMDA receptor (Rattus norvegicus, UniProt P35439+Q00960).
T1 construct: expressed in transfected cells; host or cells: HEK293 cells (ATCC CRL1573)
Description: Patch-clamp inhibition of glutamate-evoked currents at recombinant NMDA receptors in transfected HEK293 cells. Format: cell-based. The settings on record: for IC50: calculated from relative steroid-induced inhibition, Hill's coefficient 1.2, read-out: IC50; for Mean % change ± SD / inhibition at 50 µM: 1 mmol·l^−1 glutamate, −60 mV; for inhibition at 50 µM: HEK293, read-out: Mean % change ± SD. On the procedure:
Transfected cells were identified by means of fluorescent green protein (GFP) fluorescence. Its genus was transfected together with the both receptor subunit genes.
Steroid-containing solutions were prepared from fresh solution (20 mmol·l^−1, of steroid dissolved in dimethyl sulfoxide, DMSO), which was added to the extracellular solution containing 1 mmol·l^−1 glutamic acid and 10 μmol·l^−1 of glycine. Identical concentrations of DMSO were added to all other extracellular solutions.
Current responses produced by extracellular application of glutamic acid solution (1 mmol·l^−1) were measured from the whole cell by patch-clamp technique, which is used for the study of transport of charged particles through model and also natural biological membranes. The currents were measured at membrane potential maintained at −60 mV and +60 mV.
Same amounts (0.3 μg) of cDNA coding NR1, NR2 and GFP (green fluorescent protein) (pQBI 25, Takara, Japan) were mixed with 0.9 μl of Matra-A Reagent (IBA, Göttingen, Germany) and added to confluent HEK293 cells cultivated in v 24-pit cultivating plate. After trypsination, the cells were re-suspended in Opti-MEM® I containing 1% fetal bovine serum. Subsequently, 20 mmol·l^−1 MgCl2, 1 mmol l^−1 D,L-2-amino-5-phosphonopentanoic acid, 3 mmol·l^−1 kynurenic acid was added to the mixture and cells were inoculated on the polylysine-coated glass plates having 25 mm in diameter. The following genes coding NMDA receptor subunits were used for transfection: NR1-1 a (GenBank accession No. U08261) and NR2B (GenBank accession No. M91562).
HEK293 Cultured cells were used for electrophysiological investigations with a latency of 16-40 h after transfection. Whole-cell currents were measured by patch-clamp amplifier (Axopatch 1D; Axon Instruments, Inc. Foster City, USA) after capacitance and serial resistance (<10 MΩ) compensation to 80-90%. Agonist-induced responses were filtered to 1 kHz (8-pole Bessel filter; Frequency Devices, Haverhill, USA), digitized with sampling frequency of 5 kHz and analyzed by pClamp version 9 software (Axon Instruments, USA). […] Extracellular solution (ECS) contained 160 mmol·l^−1 sodium chloride, 2.5 mmol·l^−1 potassium chloride, 10 mmol·l^−1 HEPES, 10 mmol·l^−1 glucose, 0.2 mmol·l^−1 EDTA a 0.7 mmol·l^−1 calcium chloride (pH adjusted to 7.3 by sodium hydroxide solution). Glycine was added to both testing and control solution. Moreover, bicuculline (10 μmol·l^−1) and tetrodotoxin (0.5 μmol·l^−1) was added to hippocampal cultures. Steroid-containing solutions were prepared from fresh solution (20 mmol·l^−1) of steroid dissolved in dimethyl sulfoxide (DMSO). Same concentrations of DMSO were used in all extracellular solutions. Control and experimental solutions were applied via microprocessor-controlled perfusion system with approx. rate of solution exchange in areas adjacent to cells reaching ˜10 ms.
Current responses produced by 100 μmol·l^−1 of NMDA (in the case of hipocampal neurones), or by 1 mmol·l^−1 of glutamate (on recombinant NMDA receptors) were measured at membrane potential maintained at −60 mV. […] Relative effect of steroid-induced inhibition was used for calculating IC50.

Setting [1] is: HEK293, read-out: Mean % change ± SD.
[2] abbreviates: steroid concentration 50 μmol·l^−1.

T1 sequence (Q00960 27-1482, other chains not shown): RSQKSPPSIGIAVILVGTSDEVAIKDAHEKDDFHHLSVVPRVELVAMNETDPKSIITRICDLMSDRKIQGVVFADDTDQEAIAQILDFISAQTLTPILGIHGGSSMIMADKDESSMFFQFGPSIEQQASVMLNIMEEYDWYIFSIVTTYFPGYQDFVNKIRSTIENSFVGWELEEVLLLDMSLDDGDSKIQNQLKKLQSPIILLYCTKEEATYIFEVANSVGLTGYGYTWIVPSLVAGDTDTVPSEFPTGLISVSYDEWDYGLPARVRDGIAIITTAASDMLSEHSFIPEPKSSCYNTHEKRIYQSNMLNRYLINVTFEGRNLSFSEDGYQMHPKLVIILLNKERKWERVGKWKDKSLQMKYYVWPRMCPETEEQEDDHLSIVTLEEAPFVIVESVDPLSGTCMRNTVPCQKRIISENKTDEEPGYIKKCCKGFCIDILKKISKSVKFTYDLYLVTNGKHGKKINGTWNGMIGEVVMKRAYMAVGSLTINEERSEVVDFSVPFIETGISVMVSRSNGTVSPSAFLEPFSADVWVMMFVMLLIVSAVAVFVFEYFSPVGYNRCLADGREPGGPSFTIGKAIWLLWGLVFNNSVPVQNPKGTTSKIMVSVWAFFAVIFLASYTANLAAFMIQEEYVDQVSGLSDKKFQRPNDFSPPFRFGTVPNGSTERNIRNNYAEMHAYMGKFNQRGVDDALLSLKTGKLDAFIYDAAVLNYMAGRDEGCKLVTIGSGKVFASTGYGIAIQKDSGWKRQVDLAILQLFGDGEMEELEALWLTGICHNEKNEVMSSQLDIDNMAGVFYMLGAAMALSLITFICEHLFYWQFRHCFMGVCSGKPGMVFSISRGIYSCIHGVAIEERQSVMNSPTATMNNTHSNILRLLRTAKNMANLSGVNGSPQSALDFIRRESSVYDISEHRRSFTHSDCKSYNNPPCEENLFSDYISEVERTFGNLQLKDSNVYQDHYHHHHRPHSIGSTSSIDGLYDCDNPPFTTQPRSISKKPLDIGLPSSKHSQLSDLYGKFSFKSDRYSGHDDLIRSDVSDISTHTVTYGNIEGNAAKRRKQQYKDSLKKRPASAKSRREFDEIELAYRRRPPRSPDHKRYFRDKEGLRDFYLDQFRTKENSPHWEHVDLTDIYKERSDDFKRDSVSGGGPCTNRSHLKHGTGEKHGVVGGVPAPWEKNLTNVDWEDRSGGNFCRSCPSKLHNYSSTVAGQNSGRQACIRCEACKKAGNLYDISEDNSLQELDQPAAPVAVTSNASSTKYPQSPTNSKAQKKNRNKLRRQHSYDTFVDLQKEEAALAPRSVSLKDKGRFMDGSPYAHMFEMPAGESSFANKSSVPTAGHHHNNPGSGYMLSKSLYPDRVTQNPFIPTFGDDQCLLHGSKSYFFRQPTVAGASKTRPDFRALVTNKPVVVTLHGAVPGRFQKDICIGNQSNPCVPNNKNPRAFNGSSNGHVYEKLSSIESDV

`C=C1C[C@H]2[C@@H]3CC[C@@H]4C[C@H](OS(=O)(=O)O)CC[C@]4(C)[C@H]3CC[C@]2(C)C1` [Compound 114, Pyridinium (3R,5R,8S,9S,10S,13R,14S)-10,13-dimethyl-16-methylenhexadekhydro-1H-cyclopenta[a]phenanthren-3-yl 3-sulfate]: the half-maximal inhibitory concentration (IC50) (in general, the concentration that inhibits the measured activity by half) was 2.1 µM. Further, under setting [1], the inhibition at 3 µM worked out at 59.1 ± 3.8%.
As to `C[C@]12CC[C@@H](OS(=O)(=O)O)C[C@H]1CC[C@@H]1[C@@H]2CC[C@]2(C)[C@@H](I)CC[C@@H]12` [Compound 93, Pyridinium (3R,5R,8R,9S,10S,13S,14S,17S)-17-iodo-10,13-dimethylhexadecahydro-1H-cyclopenta[a]phenanthren-3-yl 3-sulfate], the IC50 was 0.8 µM. Moreover, the inhibition at 5 µM under setting [1] came to 90.5 ± 2.2%.
In the case of `C[C@]12CC[C@@H](OS(=O)(=O)O)C[C@H]1CC[C@H]1CCCC[C@@H]12.c1ccncc1` [Compound 8, Pyridinium (2R,4aS,4bS,8aR,10aR)-4a-methyltetradecahydrophenanthren-2-yl 2-Sulfate], the IC50 is 28.3 µM. Also, the “Mean % change ± SD” value (steroid concentration 100 μmol·l^−1) is 78.3 ± 5.5%.
For `C[C@]12CC[C@@H](OC(=O)CCC(=O)O)C[C@H]1CC[C@@H]1[C@@H]2CC[C@]2(C)C=CC[C@@H]12` [Compound 64, 4-(((3R,5R,8R,9S,10S,13R,14S)-10,13-Dimethyl-2,3,4,5,6,7,8,9,10,11,12,13,14,15-tetra-decahydro-1H-cyclopenta[a]phenanthren-3-yl)oxy)-4-oxobutanoic acid], the IC50 was 12.9 µM. For the same compound, the inhibition at 10 µM under setting [1] amounted to 45.9 ± 11.7%.
For `COC(=O)[C@@]1(C)CC[C@H]2[C@@H](CC[C@@H]3C[C@H](OS(=O)(=O)O)CC[C@@]32C)C1` [Compound 40, Methyl (2S,4aS,4bS,7R,8aR,10aS)-2,4b-dimethyl-7-(sulfooxy)tetradecahydrophenanthren-2-carboxylate], the IC50 is 224 µM. Besides, under setting [2], the inhibition at 50 µM was 14.4 ± 1.8%.
Consider “Pyridinium (2S,4aR,4bR,8aS,10aS)-4a-methyltetradecahydrophenanthren-2-yl 2-sulfate [Compound 128]”, for which the IC50 was 36.3 µM. Further, the “Mean % change ± SD” value under setting [2] is recorded as 58.0 ± 2.0%.
In the case of “Pyridinium (3R,5R,8R,9S,10S,13R,14S,17R)-17-isopropyl-10,13-dimethylhexadecahydro-1H-cyclopenta[a]phenanthren-3-yl 3-sulfate [Compound 122]”, the IC50 is 2 µM. Moreover, the “Mean % change ± SD” value (steroid concentration 3 μmol·l^−1) came out at 59.6 ± 18.8%.
With `COC[C@@]1(C)CC[C@H]2[C@@H](CC[C@@H]3C[C@H](OC(=O)CCC(=O)O)CC[C@@]32C)C1C` (stereo partly drawn) [Compound 19, 4-(((2R,4aS,4bS,7S,8aS,10aR)-7-(methoxymethyl)-4a,7,8-trimethyltetradecahydrophenanthren-2-yl)oxy)-4-oxobutanoic acid], the 50% inhibitory concentration (IC50) was 55 µM. Moreover, under setting [2], the inhibition at 50 µM worked out at 47.4 ± 4.3%.
On to `C[C@@]12CCC[C@H]1[C@@H]1CC[C@@H]3C[C@H](N4CC(C(=O)O)CC4=O)CC[C@]3(C)[C@H]1CC2` (stereo partly drawn) [Compound 131, 1-((3R,5R,8S,9S,10S,13S,14S)-10,13-Dimethylhexadecahydro-1H-cyclopenta[a]phenanthren-3-yl)-5-oxopyrrolidine-3-carboxylic acid], for which the IC50 was 17.7 µM. Also, the inhibition at 10 µM under setting [1] came out at 34.7 ± 7.2%.
On to “Pyridinium (3R,5R,8S,9S,10S,13R,14S,17S)-17-ethyl-10,13-dimethylhexadecahydro-1H-cyclopenta[a]phenanthren-3-yl 3-sulfate [Compound 120]”, for which the IC50 is 0.5 µM.
As for `C[C@]12CC[C@@H](OC(=O)CC(=O)O)C[C@H]1CC[C@@H]1[C@@H]2CC[C@]2(C)C=CC[C@@H]12` [Compound 65, 3-(((3R,5R,8R,9S,10S,13R,14S)-10,13-Dimethyl-2,3,4,5,6,7,8,9,10,11,12,13,14,15-tetradecahydro-1H-cyclopenta[a]phenanthren-3-yl)oxy)-3-oxopropanoic acid], the IC50 was 13.5 µM. In addition, under setting [1], the inhibition at 10 µM turned out to be 44 ± 11%.
